pIC50: −log10 of the molar value.
Assays:
[1] = tested on: P53, caspase-3, bcl-2/bax, cleaved caspase-3; test: Western blot apoptotic proteins, H460; assay type: cell-based, human; conditions: H460, 0.5, 1.0, 1.5 μM, 24 h
Method: A549 cells, H460 cells and HUVECs were treated with different concentrations of compound L14e for 24 h. Primary antibodies (100 μL/cm^2): P53(10442-1-AP, Proteintech Group),caspase-3 (19677-1-AP, Proteintech Group), bax (50599-2-lg, Proteintech Group), bcl-2 (12789-1-AP, Proteintech Group), cleaved caspase-3 (25546-1-AP, Proteintech Group), β-actin (60008-1-lg, Proteintech Group), EGFR (ab21074, Abcam), AKT (#2920, Cell Signaling Technology), ERK1/2 (#4370, Cell Signaling Technology), VEGFR-2 (#9698, Cell Signaling Technology), p-EGFR (ab40815, Abcam), p-AKT (#4060, Cell Signaling Technology), p-ERK1/2 (#4695, Cell Signaling Technology), p-VEGFR-2 (#3770, Cell Signaling Technology), and GAPDH (ab181603, Abcam). The cellular levels of proteins were determined by standard Western blotting. Details were given in Supplementary Materials and Methods.
A549 cells, H460 cells and HUVECs were treated with different concentrations of compound L14e for 24 h, and collected to establish their respective treatment groups. […]
Extracted proteins were separated from each other using polyacrylamide electrophoresis on a 10 % gel (Beyotime Biotechnology Company, Shanghai, China) and transferred to a polyvinylidene fluoride (PVDF) membrane. […] Gray values of protein bands were quantitatively analyzed, with the gray value of β-actin(GAPDH) band as the reference.

BRaf kinase = BRaf kinase (Homo sapiens, UniProt P15056); test: ADP-Glo kinase assay, BRaf; assay type: biochemical; conditions: averages from triplicate assays
Chain of BRaf kinase (P15056 whole entry): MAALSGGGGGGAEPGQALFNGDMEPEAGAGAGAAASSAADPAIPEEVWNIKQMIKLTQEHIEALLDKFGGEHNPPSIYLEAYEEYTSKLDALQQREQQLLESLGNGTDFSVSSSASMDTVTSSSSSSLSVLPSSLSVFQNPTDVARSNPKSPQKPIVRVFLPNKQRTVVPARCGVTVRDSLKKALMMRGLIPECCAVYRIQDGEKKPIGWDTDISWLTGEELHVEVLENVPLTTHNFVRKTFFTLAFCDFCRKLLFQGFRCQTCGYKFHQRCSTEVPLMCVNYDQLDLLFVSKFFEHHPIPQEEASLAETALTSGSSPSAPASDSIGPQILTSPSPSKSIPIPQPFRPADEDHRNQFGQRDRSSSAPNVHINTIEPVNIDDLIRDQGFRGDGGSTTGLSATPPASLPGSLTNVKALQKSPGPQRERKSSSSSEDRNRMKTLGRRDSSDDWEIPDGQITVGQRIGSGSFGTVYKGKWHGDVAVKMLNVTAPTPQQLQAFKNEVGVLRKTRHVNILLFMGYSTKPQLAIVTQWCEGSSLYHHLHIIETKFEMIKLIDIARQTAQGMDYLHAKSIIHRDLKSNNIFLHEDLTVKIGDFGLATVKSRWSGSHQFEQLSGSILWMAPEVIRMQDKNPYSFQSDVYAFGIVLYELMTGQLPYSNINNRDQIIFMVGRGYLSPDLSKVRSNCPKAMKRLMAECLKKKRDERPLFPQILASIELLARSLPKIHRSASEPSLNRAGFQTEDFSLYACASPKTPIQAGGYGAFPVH
Method: The ADP-Glo™ kinase assay (Promega, Madison, WI) was used to screen target compounds for their inhibition effects for BRaf, EGFR kinase. The kinase assay was carried out in a 96-well plate, in a volume of 25 μL HEPES (pH 7.3) solvent containing 1.6 μg/mL EGF, and 20 ng of EGFR kinase, or 50 ng BRaf kinase, and 10 μM ATP (Promega, Madison, WI). […] Reactions in each well were started immediately by adding ATP and kept going for half an hour under 30 °C in a constant temperature incubator (Bluepard, Shanghai, China). After the plate cooled for 5 min at room temperature, 25 μl of ADP-Glo reagent was added into each well to stop the reaction and consume the remaining […] within 40 min. At the end, 50 μl of kinase detection reagent was added into the well and incubated for 1 h to produce a luminescence signal.

For O=C(Nc1cccc(Cl)c1)Nc1ccccc1NS(=O)(=O)c1c[nH]c(=O)[nH]c1=O [Compound L14e, N'-(3-chlorophenyl)-2-(2,4-dihydroxypyrimidine-5-sulfonamido)phenyl urea], the “expression of P53, bax, bcl-2, cleaved caspase-3” value [1] was “over expression of P53, up-regulation of bax and down-regulation of bcl-2” and the pIC50 (BRaf kinase) was 5.96.
